In data set [1] the target is T1, mPiezo1 (Mus musculus, UniProt E2JF22).
T1 construct: The full-length mPiezo1 has 2547 amino acids in each monomer; expressed in transfected cells; host or cells: HEK293T
The data set is described as follows: Cell-attached patch with pressure clamp (stretch-activated currents). Type of data set: cell-based. The settings on record: for slope sensitivity (s): DMSO 14.1 ± 0.7; for P50 (the pressure required for half maximal activation): DMSO −27.0 ± 3.4. As to the method:
Stretch-activated currents were recorded in the cell-attached patch-clamp configuration as previously described. Currents were sampled at 20 kHz and filtered at 2 kHz. Pipette was filled with a solution consisting of (in mM) 130 NaCl, 5 KCl, 10 HEPES, 1 CaCl2, 1 MgCl2, and 10 TEA-Cl (pH 7.3, balanced with NaOH). The external solution used to zero the membrane potential consisted of (in mM) 140 KCl, 10 HEPES, 1 MgCl2, and 10 glucose (pH 7.3 with KOH). All experiments were done at room temperature. Membrane patches were stimulated with negative pressure pulses for 500 ms through the recording electrode using a Patchmaster-controlled pressure clamp HSPC-1 device (ALA-scientific). Stretch-activated channels were recorded at a holding potential of −80 mV with pressure steps from 0 to −100 mm Hg (−10 mm Hg increments), and 4–11 recording traces were averaged per cell for analysis. Current-pressure relationships were fitted with a Boltzmann equation of the form: I(P) = [1 + exp (−(P – P50)/s)]^−^1, where I is the peak of stretch-activated current at a given pressure, P is the applied patch pressure (in mm Hg), P50 is the pressure value that evoked a current value which is 50% of Imax, and s reflects the current sensitivity to pressure.

Data set [2] concerns mPiezo1 mutants L1342A/L1345A; L1342D/L1345D; L1342S/L1345S; L1342A; L1345A. The data set is described as follows: Single-cell Ca2+ imaging or FLIPR, L1342/L1345 mutants. Conditions: all five mutants, 1 mM Jedi1, 30 μM Yoda1. It is filed as cell-based, mouse. How it is done:
HEK293T cells were grown in Dulbecco’s modified Eagle medium containing 4.5 mg/ml glucose, 10% fetal bovine serum, and 1% penicillin/streptomycin. Cells were seeded in 50 μg/ml poly-D-lysine-coated 96-well plates (3 × 10^4 cells/well) and allowed to grow for about 18 h, and then co-transfected with a total of 250 ng cDNA containing Piezo1 or Piezo2 and GCaMP6s using Lipofectamine 2000 (Invitrogen, Life Technology). Two days after transfection the cells were washed with buffer containing 1× Hanks’ balanced salt solution (HBSS; 1.3 mM Ca^2+) and 10 mM HEPES (pH 7.2). The 96-well plates were then transferred to the FLIPR Tetra (Molecular Device) for monitoring the GCAMP6s fluorescence before and after addition of the compounds that were prepared in separate compound plates. […]
Fura-2 single-cell Ca^2+ imaging was performed according to the previous protocol. […] The coverslip was mounted into an inverted Nikon-Tie microscope equipped with a CoolSNAP charge-coupled devise (CCD) camera and Lambda XL light box (Sutter Instrument), and mCherry-positive and -negative cells were selected for measurement of the 340/380 ratio with a ×20 objective (numerical aperture 0.75) using the MetaFluor Fluorescence Ratio Imaging software (Molecular Device).

For data set [3], the system named is mPiezo1 loop deletion mutants ΔL15-16 (657-677) and ΔL19-20 (870–921). Also noted: method as in PMID 29469092. The settings on record: ΔL15-16 and ΔL19-20; cited from earlier work.
The test system is the same in data set [4]. Set-up: method as in PMID 29469092. The settings on record: ΔL15-16 and ΔL19-20; cited from earlier work. The source holds these as a separate data set.
Details of data set [5]: method as in PMID 26001275. Conditions: up; cited from earlier work.
Another data set has as its system Piezo1. Also noted: method as in PMID 26001275. The settings on record: read-out: estimated EC50; cited from earlier work.
A short description of the next data set: Water solubility. It is filed as physicochemical. Conditions: up to.
For data set [6], the target named is T1, mPiezo1. The data set is described as follows: FLIPR GCAMP6s Ca2+ response of transfected HEK293T cells. Type of data set: cell-based. The settings on record: for EC50: Boltzmann fit, vector signal subtracted. The source says: Pharmacological compounds are invaluable tools for probing the structure-function relationship of ion channels. To identify specific chemical activators of Piezo channels, we have used the fluorescent imaging plate reader (FLIPR) in a 96-well format to screen about 3000 compounds for those that can evoke Ca^2+ increase in human embryonic kidney 293T (HEK293T) cells co-transfected with either mPiezo1 or mPiezo2, and the genetically encoded Ca^2+ reporter GCAMP6s (high Ca^2+ sensitivity but slow kinetics)[43]. We initially selected compounds that evoked Ca^2+ response in either Piezo1- or Piezo2-transfected cells and subsequently ruled out those nonspecific hits that caused Ca^2+ response in Piezo1-, Piezo2-, and vector-transfected cells (Fig. 2a). Eventually, we identified Jedi1 and Jedi2 as Piezo1 chemical activators, but no specific Piezo2 activators.
(§1) HEK293T cells were grown in Dulbecco’s modified Eagle medium containing 4.5 mg/ml glucose, 10% fetal bovine serum, and 1% penicillin/streptomycin. Cells were seeded in 50 μg/ml poly-D-lysine-coated 96-well plates (3 × 10^4 cells/well) and allowed to grow for about 18 h, and then co-transfected with a total of 250 ng cDNA containing Piezo1 or Piezo2 and GCaMP6s using Lipofectamine 2000 (Invitrogen, Life Technology). Two days after transfection the cells were washed with buffer containing 1× Hanks’ balanced salt solution (HBSS; 1.3 mM Ca^2+) and 10 mM HEPES (pH 7.2). The 96-well plates were then transferred to the FLIPR Tetra (Molecular Device) for monitoring the GCAMP6s fluorescence before and after addition of the compounds that were prepared in separate compound plates. For the initial screening, we screened about 3000 compounds derived from either the chemical library collected in Dr. Yu Rao’s lab, which is composed of different classes of heterocycles, including various drug scaffold or the Maybridge Ro3 Diversity Fragment Library purchased from Maybridge (Cambridge, UK), which consists of 2500 fragment compounds with a molecular weight below 350 and high rule of three compliance. Each compound was tested at a final concentration of 200 μM. Approximately 20 positive hits were selected for further testing in Piezo1-, Piezo2-, or vector-transfected cells. For subsequent characterizations, Jedi1 was purchased from the company of Alfa Aesar, while Jedi2 and Yoda1 were synthesized in the laboratories of Drs. Wei He and Liansuo Zu, respectively. See the Supplementary Experiment Procedures for the chemical synthesis. The dose response measurement by FLIPR was similar to previously described.

Data set [7] has as its system mPiezo1 loop deletion mutants ΔL15-16 (657-677) and ΔL19-20 (870–921). The experiment in a line: FLIPR GCAMP6s Ca2+ dose response, loop deletion mutants. Type of data set: cell-based, mouse. Conditions: ΔL15-16 and ΔL19-20, FLIPR. As to the method:
as §1, with “For subsequent characterizations, Jedi1 was purchased from the company of Alfa Aesar, while Jedi2 and Yoda1 were synthesized in the laboratories of Drs. Wei He and Liansuo Zu, respectively. See the Supplementary Experiment Procedures for the chemical synthesis. The dose response measurement by FLIPR was similar to previously described.” left out

The next data set concerns the target T2, Human Piezo1 (hPiezo1) (Homo sapiens, UniProt Q92508).
T2 construct: expressed in transfected cells; host or cells: HEK293T
The data set is described as follows: Fura-2 single-cell Ca2+ imaging of hPiezo1-expressing cells. It is filed as cell-based. How it is done:
Fura-2 single-cell Ca^2+ imaging was performed according to the previous protocol. In brief, mCherry-Piezo1 cDNA (1 μg)-transfected HEK293T cells were plated onto 12-mm round glass coverslips, which were coated with poly-D-lysine and placed in 24-well plates, and subject to Fura-2 single-cell Ca^2+ imaging about 36 h post transfection. Cells were washed with buffer containing 1× HBSS (1.3 mM Ca^2+) and 10 mM HEPES (pH 7.2), incubated with 2.5 μM Fura-2 and 0.05% Pluronic F-127 (Life Technologies) for 30 min, then washed again with the previously mentioned buffer. The coverslip was mounted into an inverted Nikon-Tie microscope equipped with a CoolSNAP charge-coupled devise (CCD) camera and Lambda XL light box (Sutter Instrument), and mCherry-positive and -negative cells were selected for measurement of the 340/380 ratio with a ×20 objective (numerical aperture 0.75) using the MetaFluor Fluorescence Ratio Imaging software (Molecular Device).

≈ marks a conversion by molar mass, not a printed value.

T1 sequence (E2JF22 whole entry): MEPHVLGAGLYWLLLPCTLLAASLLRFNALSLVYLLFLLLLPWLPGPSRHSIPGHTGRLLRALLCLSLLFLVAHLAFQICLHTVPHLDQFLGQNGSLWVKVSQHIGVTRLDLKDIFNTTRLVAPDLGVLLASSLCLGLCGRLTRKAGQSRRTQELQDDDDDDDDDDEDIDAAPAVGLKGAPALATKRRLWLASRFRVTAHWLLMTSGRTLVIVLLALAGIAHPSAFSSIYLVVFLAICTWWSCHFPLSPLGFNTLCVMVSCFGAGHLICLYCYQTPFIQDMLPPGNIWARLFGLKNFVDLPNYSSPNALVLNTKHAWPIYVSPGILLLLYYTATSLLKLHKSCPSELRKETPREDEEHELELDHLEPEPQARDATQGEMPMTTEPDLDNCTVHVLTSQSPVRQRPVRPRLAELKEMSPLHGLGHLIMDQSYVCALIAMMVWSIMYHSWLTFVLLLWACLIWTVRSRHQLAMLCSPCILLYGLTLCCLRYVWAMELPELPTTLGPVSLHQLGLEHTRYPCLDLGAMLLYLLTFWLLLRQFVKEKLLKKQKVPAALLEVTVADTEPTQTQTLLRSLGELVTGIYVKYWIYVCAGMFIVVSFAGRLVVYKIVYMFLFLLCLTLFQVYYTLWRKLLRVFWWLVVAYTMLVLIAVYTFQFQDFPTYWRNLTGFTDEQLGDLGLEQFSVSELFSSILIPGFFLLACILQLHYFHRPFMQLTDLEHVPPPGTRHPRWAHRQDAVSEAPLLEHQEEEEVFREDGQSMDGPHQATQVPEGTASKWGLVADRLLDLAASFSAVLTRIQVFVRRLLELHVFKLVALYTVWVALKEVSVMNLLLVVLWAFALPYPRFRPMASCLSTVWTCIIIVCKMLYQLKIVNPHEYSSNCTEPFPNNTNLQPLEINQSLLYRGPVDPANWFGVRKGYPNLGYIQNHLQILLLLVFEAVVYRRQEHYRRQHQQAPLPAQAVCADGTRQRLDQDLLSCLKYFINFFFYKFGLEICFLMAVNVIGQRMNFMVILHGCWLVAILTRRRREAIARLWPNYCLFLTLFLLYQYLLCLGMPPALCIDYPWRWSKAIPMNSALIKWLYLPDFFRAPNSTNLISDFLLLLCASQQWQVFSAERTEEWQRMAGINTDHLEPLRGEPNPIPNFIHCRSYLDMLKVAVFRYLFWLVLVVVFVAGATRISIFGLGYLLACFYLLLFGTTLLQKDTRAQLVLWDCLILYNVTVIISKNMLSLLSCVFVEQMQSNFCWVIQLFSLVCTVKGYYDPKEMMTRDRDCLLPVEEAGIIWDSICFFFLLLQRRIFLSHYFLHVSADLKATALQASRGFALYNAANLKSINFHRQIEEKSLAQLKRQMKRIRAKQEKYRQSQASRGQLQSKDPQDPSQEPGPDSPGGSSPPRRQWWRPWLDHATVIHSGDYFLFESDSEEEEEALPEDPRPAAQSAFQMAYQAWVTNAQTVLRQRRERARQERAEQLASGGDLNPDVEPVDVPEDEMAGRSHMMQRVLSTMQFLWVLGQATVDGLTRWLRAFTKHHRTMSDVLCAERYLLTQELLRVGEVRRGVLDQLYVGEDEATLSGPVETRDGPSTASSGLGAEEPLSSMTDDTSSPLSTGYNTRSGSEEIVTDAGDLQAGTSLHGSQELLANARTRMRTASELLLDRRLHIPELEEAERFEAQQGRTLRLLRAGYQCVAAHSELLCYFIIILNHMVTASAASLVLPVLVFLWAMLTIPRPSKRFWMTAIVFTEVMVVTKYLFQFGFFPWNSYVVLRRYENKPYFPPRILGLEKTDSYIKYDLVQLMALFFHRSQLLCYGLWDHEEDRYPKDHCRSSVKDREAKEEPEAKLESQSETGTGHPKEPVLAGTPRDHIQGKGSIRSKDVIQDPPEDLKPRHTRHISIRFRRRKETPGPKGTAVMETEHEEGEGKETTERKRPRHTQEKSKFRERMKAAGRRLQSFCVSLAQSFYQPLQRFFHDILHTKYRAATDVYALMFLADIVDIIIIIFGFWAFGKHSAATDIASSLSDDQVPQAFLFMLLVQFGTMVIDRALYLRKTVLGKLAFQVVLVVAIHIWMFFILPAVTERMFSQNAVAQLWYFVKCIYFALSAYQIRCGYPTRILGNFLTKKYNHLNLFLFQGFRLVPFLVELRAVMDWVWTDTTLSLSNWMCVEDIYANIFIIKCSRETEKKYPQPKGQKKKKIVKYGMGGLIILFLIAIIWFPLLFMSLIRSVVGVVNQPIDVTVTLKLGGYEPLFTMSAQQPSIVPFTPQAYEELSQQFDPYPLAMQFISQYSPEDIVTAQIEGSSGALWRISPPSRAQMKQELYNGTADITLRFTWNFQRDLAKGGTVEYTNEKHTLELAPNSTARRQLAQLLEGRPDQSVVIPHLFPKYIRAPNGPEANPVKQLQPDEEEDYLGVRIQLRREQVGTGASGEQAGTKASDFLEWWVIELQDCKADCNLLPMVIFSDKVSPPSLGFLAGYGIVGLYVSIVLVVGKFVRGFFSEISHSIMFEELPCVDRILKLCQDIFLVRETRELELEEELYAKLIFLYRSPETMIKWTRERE
T2 sequence (Q92508 whole entry): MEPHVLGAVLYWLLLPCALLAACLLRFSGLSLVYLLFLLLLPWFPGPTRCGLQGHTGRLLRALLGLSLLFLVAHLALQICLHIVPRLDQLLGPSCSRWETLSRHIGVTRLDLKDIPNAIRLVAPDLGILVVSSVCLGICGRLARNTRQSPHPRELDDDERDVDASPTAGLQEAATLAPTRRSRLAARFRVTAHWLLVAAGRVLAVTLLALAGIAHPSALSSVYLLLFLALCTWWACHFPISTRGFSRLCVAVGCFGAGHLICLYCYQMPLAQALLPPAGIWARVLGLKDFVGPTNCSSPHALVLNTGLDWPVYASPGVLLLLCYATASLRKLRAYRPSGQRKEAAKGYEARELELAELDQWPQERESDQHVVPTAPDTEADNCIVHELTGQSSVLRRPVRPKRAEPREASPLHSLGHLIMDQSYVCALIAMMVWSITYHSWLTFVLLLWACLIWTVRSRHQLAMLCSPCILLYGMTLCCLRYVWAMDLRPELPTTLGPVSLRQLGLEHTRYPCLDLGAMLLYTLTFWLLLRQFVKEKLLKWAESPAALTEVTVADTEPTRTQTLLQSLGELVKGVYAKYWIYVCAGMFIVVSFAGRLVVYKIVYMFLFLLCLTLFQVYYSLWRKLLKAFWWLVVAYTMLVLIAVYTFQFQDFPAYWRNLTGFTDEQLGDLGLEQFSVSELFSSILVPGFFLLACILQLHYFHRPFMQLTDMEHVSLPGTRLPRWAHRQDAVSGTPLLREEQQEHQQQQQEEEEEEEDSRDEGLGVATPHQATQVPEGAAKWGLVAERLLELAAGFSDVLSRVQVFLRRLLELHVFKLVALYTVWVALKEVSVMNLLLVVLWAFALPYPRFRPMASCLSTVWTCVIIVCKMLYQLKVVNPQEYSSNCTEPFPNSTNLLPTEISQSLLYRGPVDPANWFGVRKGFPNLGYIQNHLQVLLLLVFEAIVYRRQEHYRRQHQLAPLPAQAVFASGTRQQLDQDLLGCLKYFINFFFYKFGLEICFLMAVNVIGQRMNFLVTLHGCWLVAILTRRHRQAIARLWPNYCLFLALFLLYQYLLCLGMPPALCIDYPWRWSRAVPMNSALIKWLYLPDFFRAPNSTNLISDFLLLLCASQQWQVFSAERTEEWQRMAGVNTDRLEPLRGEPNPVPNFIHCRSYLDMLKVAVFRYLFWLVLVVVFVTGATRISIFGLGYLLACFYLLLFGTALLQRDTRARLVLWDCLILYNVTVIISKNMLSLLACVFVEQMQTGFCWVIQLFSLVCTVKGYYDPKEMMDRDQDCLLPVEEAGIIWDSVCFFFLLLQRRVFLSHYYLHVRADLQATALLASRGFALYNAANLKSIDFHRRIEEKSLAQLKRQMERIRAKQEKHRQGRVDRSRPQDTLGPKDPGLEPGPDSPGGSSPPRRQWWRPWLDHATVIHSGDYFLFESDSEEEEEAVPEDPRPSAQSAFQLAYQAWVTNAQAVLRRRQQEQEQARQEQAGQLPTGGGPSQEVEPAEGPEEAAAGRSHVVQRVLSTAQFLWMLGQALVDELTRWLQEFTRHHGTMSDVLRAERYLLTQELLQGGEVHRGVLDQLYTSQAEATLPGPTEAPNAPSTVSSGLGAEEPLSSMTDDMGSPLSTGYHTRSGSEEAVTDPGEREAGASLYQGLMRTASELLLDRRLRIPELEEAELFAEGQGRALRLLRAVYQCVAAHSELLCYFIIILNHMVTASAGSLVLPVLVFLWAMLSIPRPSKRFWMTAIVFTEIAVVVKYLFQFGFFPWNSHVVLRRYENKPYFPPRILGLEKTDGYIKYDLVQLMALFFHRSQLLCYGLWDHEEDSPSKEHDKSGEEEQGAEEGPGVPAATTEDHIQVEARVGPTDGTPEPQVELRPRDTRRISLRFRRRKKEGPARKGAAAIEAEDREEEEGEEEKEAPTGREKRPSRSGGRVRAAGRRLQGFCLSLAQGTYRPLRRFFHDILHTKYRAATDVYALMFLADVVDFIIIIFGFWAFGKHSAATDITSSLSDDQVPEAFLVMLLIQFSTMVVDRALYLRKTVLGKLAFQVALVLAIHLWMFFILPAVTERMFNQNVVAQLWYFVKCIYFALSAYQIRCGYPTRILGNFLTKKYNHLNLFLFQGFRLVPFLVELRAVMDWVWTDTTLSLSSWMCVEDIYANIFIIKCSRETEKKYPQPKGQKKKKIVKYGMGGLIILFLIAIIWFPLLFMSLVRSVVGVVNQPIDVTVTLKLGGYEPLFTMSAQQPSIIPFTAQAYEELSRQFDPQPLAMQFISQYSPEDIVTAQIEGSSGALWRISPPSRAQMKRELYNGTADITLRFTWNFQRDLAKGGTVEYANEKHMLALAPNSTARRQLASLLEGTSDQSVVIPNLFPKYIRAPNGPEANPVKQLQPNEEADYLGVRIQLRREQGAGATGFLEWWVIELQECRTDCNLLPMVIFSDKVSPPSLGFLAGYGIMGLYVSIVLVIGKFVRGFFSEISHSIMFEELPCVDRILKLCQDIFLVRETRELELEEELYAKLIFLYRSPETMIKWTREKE

Broadly, the EC50 is the concentration giving half of the maximal effect. As to `Clc1cccc(Cl)c1CSc1nnc(-c2cnccn2)s1` [Yoda1, reference compound], on mPiezo1 [1], the “slope sensitivity (s)” value amounted to 8.0 ± 2.4 mm Hg. Also, on mPiezo1 [1] (−80 mV), the “maximal stretching-induced Piezo1 current” value is given as “Neither Jedi1 nor Yoda1 altered”, the “shift of the pressure-current relationship” value is on record as “significant leftward shift” and the “P50 (the pressure required for half maximal activation)” value was −15.1 ± 0.9 mm Hg. Besides, the “compound-evoked Ca2+ responses of L1342/L1345 mutants” value in data set [2] is listed as “completely lost”. Also, the “ability to potentiate poking-induced currents of loop deletion mutants” value in [3] is “retained its ability”. For the same compound, in data set [4], the “ability to evoke Ca2+ responses in loop deletion mutants” value is “retained its ability”. Moreover, the water solubility in data set [5] is on record as ~ 30 μM. For the same compound, in the data set on Piezo1, the concentration for a half-maximal effect (EC50) was approximately 17.1 µM.
One may read the solubility as how much of the substance goes into solution per volume. Low readings indicate a poorly soluble substance, high ones a readily soluble substance. A word on the Hill coefficient: it is the slope factor of the fitted curve. In turn, `Cc1oc(-c2cccs2)cc1C(=O)O` [Jedi2] gave a solubility in the data set “Water solubility” of approximately 2000 µM (≈ 416 µg/mL). At mPiezo1 [6], this compound came in with a Hill coefficient of 1.6 and a concentration for a half-maximal effect (EC50) of 158 µM. Further, the “Ca2+ response of loop deletion mutants” value in [7] is given as “no dose-dependent Ca^2+ responses”.
For the compound `Cc1oc(-c2ccccc2)cc1C(=O)O` [Jedi1], the solubility in the data set “Water solubility” is approximately 2000 µM (≈ 404 µg/mL). The “slope sensitivity (s)” value at mPiezo1 [1] worked out at 9.8 ± 1.9 mm Hg. Moreover, at mPiezo1 [1] (−80 mV), the “maximal stretching-induced Piezo1 current” value is given as “Neither Jedi1 nor Yoda1 altered” and the “P50 (the pressure required for half maximal activation)” value is −16.7 ± 2.2 mm Hg. At mPiezo1 [6], the Hill coefficient is listed as ~ 1.5 and the EC50 was approximately 200 µM. The “compound-evoked Ca2+ responses of L1342/L1345 mutants” value in data set [2] is given as “completely lost”. Further, the “Ca2+ response (Fura-2)” value at Human Piezo1 (hPiezo1) is given as “responded to Jedi1 as well”. The “Ca2+ response of loop deletion mutants” value in data set [7] is given as “no dose-dependent Ca^2+ responses”.

These data come from article PMC5880808, “A lever-like transduction pathway for long-distance chemical- and mechano-gating of the mechanosensitive Piezo1 channel” (Nature Communications, 2018).
